The source of these data is publication PMC5374441 (Scientific Reports, 2017).

Bridge positions count the residues as written; N and C are the ends. Peptide text beside a SMILES is read from it.

The test has as its target T1, Q55K Ls-AChBP mutant (Lymnaea stagnalis, UniProt P58154, Q74K).
T1 construct: made in house; Top10 E. coli is named only for plasmid propagation
The experiment in a line: biochemical. The test is classed as binding. The note with it: SEM.

Broadly, the IC50 is the concentration needed to halve the response being measured. Low values mean inhibition by little substance, high ones a need for much substance. For `CC[C@H](C)[C@@H]1NC(=O)[C@H](CC(N)=O)NC(=O)[C@@H]2CCCN2C(=O)[C@H](CC(N)=O)NC(=O)[C@H](CC(N)=O)NC(=O)[C@H](C(C)C)NC(=O)[C@H](CCCNC(=N)N)NC(=O)[C@@H]2CSSC[C@H](NC(=O)CNC(=O)[C@@H](N)CO)C(=O)N[C@@H](CSSC[C@@H](C(N)=O)NC1=O)C(=O)N[C@@H](CO)C(=O)N[C@@H](CC(N)=O)C(=O)N1CCC[C@H]1C(=O)N[C@@H](C)C(=O)N2` [LsIA] (H-SGCCSNPACRVNNPNIC-NH2; disulfide 3-9, 4-17), the IC50 amounted to 17.4 ± 10.7 µM.
